Measured values as given in patent US20230331803A1, “CO-AGONISTS OF THE GLP-1 AND AMYLIN RECEPTORS” (priority 2020, published 2023).
Read-outs that look alike come from different tables or passages of the source. Starred links: 1 amine or outer side, 2 acyl side, 3 side chain; linkers in the order of their positions; H or OH if unused. Non-standard residues stand in square brackets, D forms with d. Groups on a side chain read outwards from the residue. *: point of attachment. C20 diacid = O=C(O)CCCCCCCCCCCCCCCCCCC(=O)*; C18 diacid = O=C(O)CCCCCCCCCCCCCCCCC(=O)*; C16 diacid = O=C(O)CCCCCCCCCCCCCCC(=O)*; γGlu = O=C(O)[C@H](CCC(=O)[*:2])N[*:1]; εLys = N[C@@H](CCCCN[*:1])C(=O)[*:2]; Trx = NC[C@H]1CC[C@H](C(=O)O)CC1; AEEA = NCCOCCOCC(=O)O; Aib = CC(C)(N)C(=O)O

T1: human amylin receptor (hAmyR3) (Homo sapiens, UniProt O60896+P30988)
T1 construct: host or cells: BHK cells (Hollex-1 line: human calcitonin receptor (a) + CRE-Luc), further transfected with human RAMP3
T1 sequence (O60896 whole entry, looked up): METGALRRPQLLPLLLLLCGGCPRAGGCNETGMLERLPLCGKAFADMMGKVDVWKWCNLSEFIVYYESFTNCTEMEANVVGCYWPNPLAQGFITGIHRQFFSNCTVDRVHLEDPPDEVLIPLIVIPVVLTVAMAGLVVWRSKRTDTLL
T1 sequence (P30988 whole entry, looked up): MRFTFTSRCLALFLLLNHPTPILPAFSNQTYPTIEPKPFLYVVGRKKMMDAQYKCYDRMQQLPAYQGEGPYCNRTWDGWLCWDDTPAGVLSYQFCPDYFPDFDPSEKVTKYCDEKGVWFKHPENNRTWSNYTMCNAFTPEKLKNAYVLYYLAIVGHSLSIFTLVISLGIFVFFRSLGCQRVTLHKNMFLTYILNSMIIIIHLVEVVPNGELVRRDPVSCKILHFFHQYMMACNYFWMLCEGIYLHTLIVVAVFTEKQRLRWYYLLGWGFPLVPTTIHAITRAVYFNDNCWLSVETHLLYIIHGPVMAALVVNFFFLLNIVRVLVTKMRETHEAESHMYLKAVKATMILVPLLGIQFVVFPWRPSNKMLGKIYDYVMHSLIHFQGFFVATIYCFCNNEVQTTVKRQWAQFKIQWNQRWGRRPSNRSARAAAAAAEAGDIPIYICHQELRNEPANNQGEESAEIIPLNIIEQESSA

B1: H-Aib-EGTFTSDVSSYLEGQAA-K([2-[2-[2-[[2-[2-[2-[[(4S)-4-Carboxy-4-(17-Carboxyheptadecanoylamino)Butanoyl]Amino]Ethoxy]Ethoxy]Acetyl]Amino]Ethoxy]Ethoxy]Acetyl])-EFIAWLVRGRGGQEPGQEP-K([2-[2-[2-[[2-[2-[2- … (peptide)
peptide: H[Aib]EGTFTSDVSSYLEGQAAK([AEEA-AEEA-γGlu-C18 diacid])EFIAWLVRGRGGQEPGQEPK([AEEA-AEEA-γGlu-C18 diacid])CNTATCATQRLAEFLRHSSNNFGPILPPTNVGSNTP-NH2
modifications: ends and bridges not checked

Legend:
[1] = molecular target: T2, human amylin receptor (hAmyR3) (Homo sapiens, UniProt O60896+P30988); test: Human amylin receptor in vitro potency assay (CRE-luciferase reporter, BHK cells); type: cell-based; conditions: for EC50: Table 4a, BHK hAmyR3/CRE-Luc cells, 3 hours, read-out: Human AmyR3 potency [EC50 (pM)]; for Ability to agonise the amylin receptor, in words: Tables 4a-4c;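 as to all read-outs here: BHK cells expressing human calcitonin receptor plus RAMP3 (amylin-3 receptor) with a CRE-luciferase reporter, agonist activity read as luminescence from cAMP-driven transcription, 7-point serial dilutions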
T2 construct: host or cells: BHK cells (Hollex-1 line: human calcitonin receptor (a) + CRE-Luc), further transfected with human RAMP3

human GLP-1 receptor = molecular target: T3, human GLP-1 receptor (Homo sapiens, UniProt P43220); test: Human GLP-1 receptor in vitro potency assay (CRE-luciferase reporter, BHK cells); type: cell-based; conditions: for EC50: Table 4a, BHK cells expressing human GLP-1R, CRE-Luc, 3 hours, read-out: Human GLP-1R potency [EC50 (pM)]; for Ability to agonise the GLP-1 receptor, in words: Tables 4a-4c
T3 construct: expressed in transfected cells; host or cells: BHK (Baby Hamster Kidney) cells, clone BHK 467-12A KZ-10, stably transfected, with CRE-luciferase reporter
T3 sequence (P43220 24-463): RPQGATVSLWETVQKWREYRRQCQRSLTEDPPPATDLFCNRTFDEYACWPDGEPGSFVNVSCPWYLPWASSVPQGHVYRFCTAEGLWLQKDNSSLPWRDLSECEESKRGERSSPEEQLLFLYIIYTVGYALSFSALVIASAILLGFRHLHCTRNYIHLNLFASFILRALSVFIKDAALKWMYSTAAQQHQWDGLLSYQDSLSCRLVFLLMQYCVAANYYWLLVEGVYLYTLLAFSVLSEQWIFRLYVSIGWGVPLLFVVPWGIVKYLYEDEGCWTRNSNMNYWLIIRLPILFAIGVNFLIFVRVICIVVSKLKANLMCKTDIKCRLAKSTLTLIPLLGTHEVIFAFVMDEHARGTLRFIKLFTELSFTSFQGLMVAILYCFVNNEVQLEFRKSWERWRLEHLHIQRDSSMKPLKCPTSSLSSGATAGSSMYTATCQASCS
Protocol: It is thus possible to measure GLP-1 receptor activity using a CRE-luciferase reporter gene introduced into Baby Hamster Kidney (BHK) cells co-expressing the GLP-1 receptor.
Cells were aliquoted and stored at -180° C. until use.
Plates were sealed and incubated at room temperature with gentle shaking for 30 minutes while protected from light. Luminescence was detected on a luminescence plate reader e.g. a Synergy 2 (BioTek).

Sprague Dawley (SD) rats = test: Acute food intake in ad libitum fed rats after a single subcutaneous administration; type: in vivo, rat; conditions: for Food intake relative to vehicle (%) 0-24 hr, 10 nmol/kg / Food intake relative to vehicle (%) 24-48 hr, 10 nmol/kg: rat, single administration;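 as to all read-outs here: food intake monitored in the HM2 system, three rats per cage kept on a reversed light cycle, with food and water freely available after the subcutaneous dose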
Description: Sprague Dawley (SD) rats from Taconic Europe, Denmark were used for the acute food intake experiments, wherein the principles of laboratory animal care were followed.
The rats arrived at least 10-14 days before the start of the experiment to allow acclimatisation to experimental settings. During this period, the animals were handled at least 2 times. Immediately upon arrival, rats were put on a reversed light cycle (dark from 11am - 11pm) and put in the HM2 system and ID chipped. Three rats were housed in each cage. […] The rats were dosed once according to body weight with a 0.01-3 mg/kg solution administered subcutaneously (sc). The time of dosing was recorded for each group.
After dosing, the rats were returned to their home cages, where they had access to food and water. […] At the end of the experimental session, the animals were euthanised.

[2] = Pharmacokinetic studies in Beagle dogs after oral administration of SNAC-based tablets; type: in vivo; conditions: dog, in vivo, po; for T½ / Tmax / half-life: male, Beagle; for half-life: T½ (hr)
In short: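 Fasted male Beagle dogs received immediate-release oral tablets containing 3–4 mg test substance with 100–300 mg SNAC, optionally after ~3 nmol/kg s.c. SEQ ID NO: 237 10 min before. EDTA plasma sampled up to 240 h; LCMS concentrations analysed non-compartmentally.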

[3] = measured in humans (Meier et al., Diabetes, 2004); cited from earlier work
[4] = endogenous hormone; cited from earlier work
[5] = molecular target: T1, human amylin receptor (hAmyR3); test: Human amylin receptor in vitro potency assay (CRE-luciferase reporter, BHK cells); type: cell-based; conditions: Tables 4a-4c

Molecule	EC50 [1] [pM]	EC50 (human GLP-1 receptor) [pM]	Food intake relative to vehicle (%) 0-24 hr, 10 nmol/kg (Sprague Dawley (SD) rats; Table 6a) [%]	Food intake relative to vehicle (%) 24-48 hr, 10 nmol/kg (Sprague Dawley (SD) rats; Table 6a) [%]	T½ [2] [h]	Tmax ([2]; Tmax (hr)) [h]	half-life [2] [h]	AUC/D [2] [kg·h/L]	Cmax/D [2] [kg/L]	Ability to agonise the amylin receptor, in words [1]	Ability to agonise the GLP-1 receptor, in words (human GLP-1 receptor)	Tmax [2] [h]	Food intake relative to vehicle (%) 0-24 hr, 10 nmol/kg (Sprague Dawley (SD) rats; Table 6b) [%]	Food intake relative to vehicle (%) 24-48 hr, 10 nmol/kg (Sprague Dawley (SD) rats; Table 6b) [%]	Inhibition of food intake, in words (Sprague Dawley (SD) rats; rats, 10 nmol/kg)	half-life [3] [h]	half-life [4] [h]	Ability to agonise the amylin receptor, in words [5]
H-H[Aib]EGTFTSDVSK([AEEA-AEEA-γGlu-C16 diacid])YLEEQAARK([AEEA-AEEA-γGlu-C16 diacid])FIAWLVRGRGGGGGEASELSTAALGRLSAELHELATLPRTETGSGSP-NH2 [Compound 0516]	8.9	3.3	87	82	103	2	99											
H-H[Aib]EGTFTSDVSK([AEEA-AEEA-γGlu-C18 diacid])YLEEQAAREFIAWLVRGRGGGGGEASELSTAALGRLSAELHELATLPRTETGSGSP-NH2 [Compound 0640]	6	2.3	28	66		1.5	29	7.57	0.37									
H-H[Aib]EGTFTSDVSRYLEEQAAREFIEWLVRGRK([AEEA-AEEA-γGlu-Trx-C20 diacid])GGGGEASELSTAALGRLSAELHELATLPRTETGSGSP-NH2 [Compound 0511]	8.4	8.8	61	75		2	25	3.80	0.14									
H-H[Aib]EGTFTSDVSSYLEEQAAREFIAWLVRGRK([AEEA-AEEA-γGlu-C18 diacid])GGGGEASELSTAALGRLSAELHELATLPRTETGSGSP-NH2 [Compound 0111]	11.5	3	28	75	42	1.5	44			retained full potency on both receptors	retained full potency on both receptors	2.0						
H-H[Aib]EGTFTSDVSSYLEEQAAREFIAWLVRGRK([AEEA-AEEA-γGlu-C20 diacid])GGGGEASELSTAALGRLSAELHELATLPRTETGSGSP-NH2 [Compound 0502]	9	8.4	61	72		2	66					4.0						
H-H[Aib]EGTFTSDVSSYLEEQAAREFIAWLVRGRK([AEEA-AEEA-γGlu-Trx-C20 diacid])GGGGEASELSTAALGRLSAELHELATLPRTETGSGSP-NH2 [Compound 0120]	10.6	9.1	53	55	22		24			fully potent on both receptors	fully potent on both receptors		53	55	significant inhibition of food intake within the first 48 hours			
H-H[Aib]EGTFTSDVSSYLEEQAAREFIAWLVRGRK([εLys-AEEA-AEEA-γGlu-C20 diacid])GGGGEASELSTAALGRLSAELHELATLPRTETGSGSP-NH2 [Compound 0552]	6.9	4.7	56	55		1	52	8.58	0.22									
H-H[Aib]EGTFTSDVSSYLEEQAARK([εLys-AEEA-AEEA-γGlu-Trx-C20 diacid])FIEWLVRGRGEASELSTAALGRLSAELHELATLPRTETGSGSP-NH2 [Compound 0439]	10.7	8.3	43	41		2	24	5.36	0.21									
H-H[Aib]EGTFTSDVSSYLEGQAAKEFIAWLVRGRK([εLys-AEEA-AEEA-γGlu-C18 diacid])GGEASELSTAALGRLSAELHELATLPRTETGSGSP-NH2 [Compound 0045]	25.9	19.4	46	80		1.3	41	10.90	0.27									
H-H[Aib]EGTFTSDVSSYLEGQAAREFIAWLVRGRGQEPK([AEEA-AEEA-γGlu-C18 diacid])GQAPEASELSTAALGRLSAELHELATLPRTETGSGSP-NH2 [Compound 0084]	14	2.5	44	50		1.5	47	15.16	0.36									
human amylin (KCNTATCATQRLANFLVHSSNNFGAILSSTNVGSNTY; Islet amyloid polypeptide; UniProt P10997 34-70, looked up) [37-amino acid long polypeptide hormone co-secreted with insulin from the pancreatic beta-cell]																0.25 to 0.333	0.25 to 0.333	
B1																		do not activate the amylin receptor
